Laboratory results from patent US5494895A, “Scorpion peptide margatoxin with immunosuppressant activity” (Merck & Co., Inc., priority 1993, dated 1996).
Peptide text beside a SMILES is read from it.

What was measured:
Shaker-H4 = molecular target: T1, Shaker-H4 (Drosophila melanogaster, UniProt P08510); test: Two-electrode voltage clamp of Xenopus oocytes expressing Shaker-H4; format: cell-based
T1 construct: expressed in transfected cells; host or cells: Xenopus oocytes injected with RNA transcribed in vitro from the cDNA clone
T1 sequence (P08510 whole entry): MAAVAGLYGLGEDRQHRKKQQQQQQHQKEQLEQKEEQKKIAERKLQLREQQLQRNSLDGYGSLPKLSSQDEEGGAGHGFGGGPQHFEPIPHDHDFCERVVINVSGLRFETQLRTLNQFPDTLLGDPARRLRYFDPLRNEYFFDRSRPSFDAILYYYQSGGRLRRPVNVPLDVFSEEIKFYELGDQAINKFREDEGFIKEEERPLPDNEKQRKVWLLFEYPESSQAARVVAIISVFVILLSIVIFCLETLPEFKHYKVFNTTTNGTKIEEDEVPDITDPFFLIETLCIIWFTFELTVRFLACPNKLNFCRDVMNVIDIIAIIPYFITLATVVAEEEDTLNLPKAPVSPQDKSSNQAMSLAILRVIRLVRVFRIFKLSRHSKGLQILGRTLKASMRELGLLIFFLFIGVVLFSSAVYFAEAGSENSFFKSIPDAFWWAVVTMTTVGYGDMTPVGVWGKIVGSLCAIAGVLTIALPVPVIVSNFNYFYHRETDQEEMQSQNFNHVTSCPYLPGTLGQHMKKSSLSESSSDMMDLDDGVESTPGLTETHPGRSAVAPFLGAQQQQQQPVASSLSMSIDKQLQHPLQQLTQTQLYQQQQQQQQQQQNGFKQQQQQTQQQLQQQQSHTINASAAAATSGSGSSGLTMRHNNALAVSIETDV
Description: (§1) Ionic currents were also recorded from Xenopus oocytes that had been injected with RNA transcribed in vitro from one or another of the following K^+ channel cDNA clones. Kv 1 (rat Kv 1.5), rat or human Kv 3 (rat Kv 1.3; human Kv 1.3), Kv 4 (rat Kv 3.1 ), rat ISK, Kv 2 (rat Kv 1.6) or Drosophila Shaker-H4. The names of the clones are listed as originally published, with the appropriate parenthetical designation according to the unified gene nomenclature proposed by Chandy. Shaker-H4 is a splice variant from the original Drosophila Shaker K^+ channel gene. Kv 1.3 is the ChTX-sensitive delayed rectifier current found in rat and human T lymphocytes (data from rat and human clones were indistinguishable and were combined) and it is a member of the Shaker family. Kv 1.5 is a channel cloned from rat (Swanson et al., Neuron, 4, 929, 1990) and is another member of the Shaker family. The Kv 1.5 transcript has been detected in pancreatic β cells as described in Philipson, et al., Proc. Natl. Acad. Sci. U.S.A. 88, 53, 1991. […] The ISK transcript has been detected in lymphocytes (Attali et al., J. Biol. Chem,. 267, 8650, 1992), but no evidence of the IKs current has been found in those cells.
(§2) Methods for oocyte isolation and micro-injection were previously described in Goldin, Meth. […] Currents expressed in oocytes were measured using a DAGAN model CA-1 two-electrode voltage clamp. […]

Maxi-K channel = molecular target: T2, Maxi-K channel (Bos taurus, UniProt Q28204); test: [125I]ChTX binding to bovine aortic smooth muscle sarcolemmal membranes; conditions: concentrations up to 10 nM
T2 construct: from tissue; host or cells: bovine aortic smooth muscle sarcolemmal membranes
T2 sequence (Q28204 whole entry): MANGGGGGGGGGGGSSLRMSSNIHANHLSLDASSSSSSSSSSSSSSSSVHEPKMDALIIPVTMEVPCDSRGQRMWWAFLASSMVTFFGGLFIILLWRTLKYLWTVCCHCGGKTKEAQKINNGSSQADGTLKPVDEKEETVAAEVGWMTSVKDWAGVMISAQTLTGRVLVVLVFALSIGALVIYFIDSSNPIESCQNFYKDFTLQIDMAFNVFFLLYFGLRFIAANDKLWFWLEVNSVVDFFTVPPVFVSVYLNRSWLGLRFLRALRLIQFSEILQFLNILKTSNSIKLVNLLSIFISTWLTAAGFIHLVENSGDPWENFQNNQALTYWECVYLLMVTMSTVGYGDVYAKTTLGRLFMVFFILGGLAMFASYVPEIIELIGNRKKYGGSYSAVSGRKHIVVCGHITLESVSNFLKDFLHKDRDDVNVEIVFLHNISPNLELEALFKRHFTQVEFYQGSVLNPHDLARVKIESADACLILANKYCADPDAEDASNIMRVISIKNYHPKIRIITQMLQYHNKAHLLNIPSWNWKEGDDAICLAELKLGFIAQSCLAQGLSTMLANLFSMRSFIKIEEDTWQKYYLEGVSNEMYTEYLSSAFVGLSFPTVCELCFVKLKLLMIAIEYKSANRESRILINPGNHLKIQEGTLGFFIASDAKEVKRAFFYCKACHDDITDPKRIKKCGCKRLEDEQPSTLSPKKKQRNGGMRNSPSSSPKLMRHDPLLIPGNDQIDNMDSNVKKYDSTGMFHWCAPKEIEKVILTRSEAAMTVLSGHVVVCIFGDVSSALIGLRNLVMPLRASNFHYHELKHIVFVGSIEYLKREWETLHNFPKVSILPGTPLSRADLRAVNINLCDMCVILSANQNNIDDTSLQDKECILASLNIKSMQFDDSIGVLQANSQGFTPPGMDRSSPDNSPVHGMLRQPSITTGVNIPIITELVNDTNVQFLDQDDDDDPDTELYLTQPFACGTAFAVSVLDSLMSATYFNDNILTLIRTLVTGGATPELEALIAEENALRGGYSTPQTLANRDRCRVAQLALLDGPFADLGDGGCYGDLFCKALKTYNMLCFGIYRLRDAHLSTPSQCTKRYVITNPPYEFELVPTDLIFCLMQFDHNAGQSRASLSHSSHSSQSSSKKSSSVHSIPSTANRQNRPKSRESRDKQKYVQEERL
T2 sequence (Q28067 whole entry partner): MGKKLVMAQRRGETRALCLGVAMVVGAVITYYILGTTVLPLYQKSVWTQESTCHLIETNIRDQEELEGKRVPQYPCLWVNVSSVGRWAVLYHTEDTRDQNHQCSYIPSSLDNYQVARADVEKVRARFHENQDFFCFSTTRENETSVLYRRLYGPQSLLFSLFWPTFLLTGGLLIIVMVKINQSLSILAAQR
Description: The potency of MgTX as an inhibitor of [^125 I]ChTX binding to Kv 1.3 was evaluated. The binding of [^125 I]ChTX to either rat brain synaptic plasma membrane vesicles (Kv 1.3 channel; Vazquez et al., J. Biol. Chem. 265, 15564, 1990) or bovine aortic smooth muscle sarcolemmal membranes (Maxi-K channel; Vazquez et al., J. Biol. Chem. 264, 20402, 1989) was determined as described. Briefly, membrane vesicles were incubated with [^125 I]ChTX in the presence or absence of other added agents, until equilibrium was achieved. Separation of bound from free ligand was accomplished by filtration through GF/C glass fiber filters (WHATMAN) that had been presoaked in 0.5% polyethyleneimine. Nonspecific binding was determined in the presence of 10 nM unlabeled ChTX. Data from saturation experiments were analyzed in a Scatchard representation to determine Kd and Bmax values. Triplicate samples were obtained for each experimental point and the data were averaged. The standard deviation of the mean was typically less than 2%. […] As an indication of selectivity, MgTX had no effect on [^125 I]ChTX binding to the Maxi-K channel in smooth muscle membranes at concentrations up to 10 nM.

Kv 1.6 = molecular target: T3, Kv 1.6 (Rattus norvegicus, UniProt P17659); test: Two-electrode voltage clamp of Xenopus oocytes expressing Kv 2 (Kv 1.6); format: cell-based; conditions: read-out: concentration at which Kv 1.6 was half blocked
T3 construct: expressed in transfected cells; host or cells: Xenopus oocytes injected with RNA transcribed in vitro from the cDNA clone
T3 sequence (P17659 whole entry): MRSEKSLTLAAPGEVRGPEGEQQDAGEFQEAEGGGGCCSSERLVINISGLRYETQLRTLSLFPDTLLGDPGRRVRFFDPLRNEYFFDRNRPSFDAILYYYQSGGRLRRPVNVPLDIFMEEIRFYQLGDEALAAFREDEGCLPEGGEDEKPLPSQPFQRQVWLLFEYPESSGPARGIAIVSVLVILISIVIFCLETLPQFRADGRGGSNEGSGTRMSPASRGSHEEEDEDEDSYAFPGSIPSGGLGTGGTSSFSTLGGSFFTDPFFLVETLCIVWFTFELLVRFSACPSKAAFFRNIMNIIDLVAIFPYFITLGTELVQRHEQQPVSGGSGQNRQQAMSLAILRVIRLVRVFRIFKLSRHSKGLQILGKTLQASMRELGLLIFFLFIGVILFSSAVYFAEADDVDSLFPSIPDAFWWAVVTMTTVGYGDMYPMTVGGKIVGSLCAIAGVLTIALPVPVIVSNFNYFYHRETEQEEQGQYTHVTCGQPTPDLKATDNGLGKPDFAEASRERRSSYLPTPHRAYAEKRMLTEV
Description: as §1, §2

Kv 3.1 = molecular target: T4, Kv 3.1 (Rattus norvegicus, UniProt P25122); test: Two-electrode voltage clamp of Xenopus oocytes expressing Kv 4 (Kv 3.1); format: cell-based; conditions: 200 nM MgTX
T4 construct: expressed in transfected cells; host or cells: Xenopus oocytes injected with RNA transcribed in vitro from the cDNA clone
T4 sequence (P25122 1-585): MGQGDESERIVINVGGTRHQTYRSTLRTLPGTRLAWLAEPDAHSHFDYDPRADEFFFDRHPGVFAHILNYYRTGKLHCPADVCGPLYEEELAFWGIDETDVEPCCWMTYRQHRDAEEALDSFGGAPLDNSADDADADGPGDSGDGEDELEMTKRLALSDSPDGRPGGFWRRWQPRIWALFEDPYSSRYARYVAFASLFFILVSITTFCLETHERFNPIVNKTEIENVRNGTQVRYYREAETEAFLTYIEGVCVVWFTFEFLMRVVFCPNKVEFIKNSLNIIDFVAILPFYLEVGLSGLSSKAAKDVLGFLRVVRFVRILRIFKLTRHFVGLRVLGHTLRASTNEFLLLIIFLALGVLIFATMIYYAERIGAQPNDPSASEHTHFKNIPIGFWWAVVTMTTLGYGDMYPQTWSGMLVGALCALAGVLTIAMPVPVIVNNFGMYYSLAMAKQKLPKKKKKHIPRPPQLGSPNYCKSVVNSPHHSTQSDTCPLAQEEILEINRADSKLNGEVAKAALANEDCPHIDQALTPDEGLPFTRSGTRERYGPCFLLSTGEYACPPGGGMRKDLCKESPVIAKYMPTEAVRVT
Description: as §1, §2

human T cells = conditions: cited from earlier work
human T-lymphocytes = conditions: cited from earlier work
[1] = system: three different ChTX-sensitive, Ca2+-activated K+ channels of lymphocytes; conditions: even at 100 nM; cited from earlier work
Kv 1 (rat Kv 1.5) = molecular target: T5, Kv 1 (rat Kv 1.5) (Rattus norvegicus, UniProt P19024); test: Two-electrode voltage clamp of Xenopus oocytes expressing Kv 1 (Kv 1.5); format: cell-based; conditions: 200 nM MgTX
T5 construct: expressed in transfected cells; host or cells: Xenopus oocytes injected with RNA transcribed in vitro from the cDNA clone
T5 sequence (P19024 whole entry): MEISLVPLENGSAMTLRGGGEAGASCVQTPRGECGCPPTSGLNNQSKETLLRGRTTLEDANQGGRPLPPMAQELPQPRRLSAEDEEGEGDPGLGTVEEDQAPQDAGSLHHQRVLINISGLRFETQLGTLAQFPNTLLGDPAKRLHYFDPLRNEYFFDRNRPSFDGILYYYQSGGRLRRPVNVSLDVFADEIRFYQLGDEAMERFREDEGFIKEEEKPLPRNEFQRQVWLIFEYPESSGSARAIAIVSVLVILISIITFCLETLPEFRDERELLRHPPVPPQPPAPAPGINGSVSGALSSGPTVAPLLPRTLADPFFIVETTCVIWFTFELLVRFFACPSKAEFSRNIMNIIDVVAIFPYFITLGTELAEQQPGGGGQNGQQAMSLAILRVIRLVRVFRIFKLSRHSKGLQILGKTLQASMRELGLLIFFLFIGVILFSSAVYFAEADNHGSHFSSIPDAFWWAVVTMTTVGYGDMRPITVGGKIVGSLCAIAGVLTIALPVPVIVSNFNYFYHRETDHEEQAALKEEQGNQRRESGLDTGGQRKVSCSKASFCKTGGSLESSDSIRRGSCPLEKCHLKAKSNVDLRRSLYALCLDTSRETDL
Description: as §1, §2

CC[C@H](C)[C@H](NC(=O)[C@@H](N)[C@@H](C)O)C(=O)N[C@H](C(=O)N[C@@H](CC(N)=O)C(=O)N[C@H](C(=O)N[C@@H](CCCCN)C(=O)N[C@H]1CSSC[C@@H]2NC(=O)[C@H](CCCCN)NC(=O)[C@H](C)NC(=O)CNC(=O)[C@H](C)NC(=O)[C@H](CO)NC(=O)[C@H](CCC(N)=O)NC(=O)CNC(=O)[C@H](Cc3ccccc3)NC(=O)[C@H](CCC(N)=O)NC(=O)[C@H](C)NC(=O)[C@H](CCCCN)NC(=O)[C@@H]3CSSC[C@@H](C(=O)N[C@@H](Cc4ccc(O)cc4)C(=O)N4CCC[C@H]4C(=O)N[C@@H](Cc4c[nH]cn4)C(=O)O)NC(=O)[C@H](CCCCN)NC(=O)[C@H](CSSC[C@H](NC(=O)[C@H](CCC(N)=O)NC(=O)[C@H](CCCCN)NC(=O)[C@@H]4CCCN4C(=O)[C@H](CO)NC(=O)[C@H]([C@@H](C)O)NC1=O)C(=O)N[C@@H](CC(C)C)C(=O)N1CCC[C@H]1C(=O)N1CCC[C@H]1C(=O)N3)NC(=O)[C@H](CCCCN)NC(=O)CNC(=O)[C@H](CC(N)=O)NC(=O)[C@H](CCSC)NC2=O)C(C)C)[C@@H](C)CC [MgTX, Margatoxin] (HELM PEPTIDE1{T.I.I.N.V.K.C.T.S.P.K.Q.C.L.P.P.C.K.A.Q.F.G.Q.S.A.G.A.K.C.M.N.G.K.C.K.C.Y.P.H}$PEPTIDE1,PEPTIDE1,7:R3-29:R3|PEPTIDE1,PEPTIDE1,13:R3-34:R3|PEPTIDE1,PEPTIDE1,17:R3-36:R3$$$V2.0; N-terminus and C-terminus assumed; bridges inferred)
IC50 (Shaker-H4): 100 nM | effect on [125I]ChTX binding to the Maxi-K channel in smooth muscle membranes (Maxi-K channel): no effect | IC50 (Kv 1.6): 5 nM | sensitivity of cloned channel Kv 3.1 to block (Kv 3.1): completely insensitive | effect on activation and proliferation mediated by Ca2+-dependent pathways (human T cells): prevent activation and proliferation | effect on membrane potential of human T cells (human T cells): depolarize human T cells | effect on interleukin 2 production (human T-lymphocytes): inhibits interleukin 2 production | effect on three ChTX-sensitive Ca2+-activated K+ channels of lymphocytes [1]: no effect | sensitivity of cloned channel Kv 5 to block (Kv 1 (rat Kv 1.5)): completely insensitive
